The assay addresses T1, PimA (Mycolicibacterium smegmatis, UniProt A0QWG6).
T1 construct: recombinant from pET29a-pimA in E. coli BL21(DE3) pLysS; purified
T1 sequence (A0QWG6 1-386): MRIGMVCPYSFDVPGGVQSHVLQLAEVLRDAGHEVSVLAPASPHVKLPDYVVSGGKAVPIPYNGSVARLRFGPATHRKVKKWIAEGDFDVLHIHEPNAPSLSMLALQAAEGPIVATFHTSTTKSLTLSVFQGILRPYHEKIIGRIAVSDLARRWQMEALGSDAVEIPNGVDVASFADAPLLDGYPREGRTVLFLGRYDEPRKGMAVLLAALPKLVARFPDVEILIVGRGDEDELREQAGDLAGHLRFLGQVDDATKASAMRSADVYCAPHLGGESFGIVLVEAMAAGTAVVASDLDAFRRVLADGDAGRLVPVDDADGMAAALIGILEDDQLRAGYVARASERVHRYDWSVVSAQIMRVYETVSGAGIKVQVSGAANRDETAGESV
The assay is described as follows: thermal unfolding by far-UV CD at […] nm. It counts as binding. The note with it: 10 mM Tris-HCl, pH 7.5; 10 uM protein, ligand 1:15.

Take `Nc1nc2c(ncn2[C@@H]2O[C@H](COP(=O)(O)OP(=O)(O)O)[C@@H](O)[C@H]2O)c(=O)[nH]1` [GDP]: the Tm result was “after the addition of GDP, wild-type PimA, PimA^R144C, and PimA^R144C-TFA displayed a clear increase”.
